Measured values taken from patent US20250163104A1, “MACROCYCLIC IMMUNOMODULATORS” (priority 2021, published 2025).
Where a SMILES comes first, the peptide text is derived from it. Bridges are numbered along the chain shown (N, C = ends). [ ]: non-standard residue; d: D form. The star is where a group is joined. Phe(4-COOH) = N[C@@H](Cc1ccc(C(=O)O)cc1)C(=O)O; Bip = N[C@@H](Cc1ccc(-c2ccccc2)cc1)C(=O)O; aIle = CC[C@@H](C)[C@H](N)C(=O)O; 4Pal = N[C@@H](Cc1ccncc1)C(=O)O; Cha = N[C@@H](CC1CCCCC1)C(=O)O; dCha = N[C@H](CC1CCCCC1)C(=O)O; Carboxymethyl = O=C(O)C*; Orn = NCCC[C@H](N)C(=O)O; Dab = NCC[C@H](N)C(=O)O; Dap = NC[C@H](N)C(=O)O

target: T1, human PD-1 / PD-L1-Ig binding on Jurkat cell line over-expressing human PD-1 (Jurkat-PD-1) (Homo sapiens, UniProt Q15116); test: Jurkat-PD-1 Cell Binding High-Content Screening Assay (CBA); type: cell-based; settings: Jurkat-PD-1 cells, PE-labeled PD-L1-Ig 20 nM final; read-out: Jurkat HPD1_PDL1 IC50
T1 construct: expressed in transfected cells; host or cells: Jurkat
T1 sequence (Q15116 25-288): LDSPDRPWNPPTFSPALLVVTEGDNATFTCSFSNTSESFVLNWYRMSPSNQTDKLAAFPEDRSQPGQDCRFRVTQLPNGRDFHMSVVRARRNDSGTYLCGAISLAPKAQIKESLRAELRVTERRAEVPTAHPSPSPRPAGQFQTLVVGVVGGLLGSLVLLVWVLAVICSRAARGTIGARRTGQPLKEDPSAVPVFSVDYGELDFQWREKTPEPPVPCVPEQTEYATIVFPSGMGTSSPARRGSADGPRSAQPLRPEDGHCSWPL
Procedure, shortened: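 Binding of fluorescent PD-L1-Ig (phycoerythrin linked via the Ig tag, 20 nM final) to PD-1-overexpressing Jurkat cells was imaged after a 2 h, 37° C compound pretreatment and 1 hour ligand incubation.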

| SMILES | IC50 [nM] |
| --- | --- |
| CC[C@@H](C)[C@@H]1NC(=O)[C@H](Cc2ccc(-c3ccccc3)cc2)NC(=O)[C@H](C(C)C)NC(=O)[C@H](Cc2c[nH]c3ccccc23)NC(=O)[C@H](CC(=O)O)NC(=O)[C@H](Cc2ccc(C(=O)O)cc2)NC(=O)[C@H](Cc2ccc(OCC(=O)O)cc2)NC(=O)CSC[C@@H](C(=O)N[C@@H](C)C(N)=O)NC(=O)[C@H]([C@@H](C)O)NC(=O)[C@H](C(C)C)NC(=O)[C@H](CC2CCCCC2)NC(=O)[C@H](CCN)NC(=O)[C@@H](CC2CCCCC2)NC(=O)[C@H](CCCN)NC1=O [Compound 1626] ({CH2CO}-Y(Carboxymethyl)[Phe(4-COOH)]DWV[Bip][aIle][Orn][dCha][Dab][Cha]VTCA-NH2; thioether N-14) | 51.9 |
| CC[C@@H](C)[C@@H]1NC(=O)[C@H](Cc2ccc(-c3ccccc3)cc2)NC(=O)[C@H](C(C)C)NC(=O)[C@H](Cc2c[nH]c3ccccc23)NC(=O)[C@H](CC(=O)O)NC(=O)[C@H](Cc2ccc(OCC(=O)O)cc2)NC(=O)[C@H](CN)NC(=O)CSC[C@@H](C(=O)N[C@@H](C)C(N)=O)NC(=O)[C@H]([C@@H](C)O)NC(=O)[C@H](C(C)C)NC(=O)[C@H](CC2CCCCC2)NC(=O)[C@H](CCN)NC(=O)[C@@H](CC2CCCCC2)NC(=O)[C@H](CCCN)NC1=O [Compound 1627] ({CH2CO}-[Dap]Y(Carboxymethyl)DWV[Bip][aIle][Orn][dCha][Dab][Cha]VTCA-NH2; thioether N-14) | 19.3 |
| CC[C@@H](C)[C@@H]1NC(=O)[C@H](Cc2ccc(-c3ccccc3)cc2)NC(=O)[C@H](C(C)C)NC(=O)[C@H](Cc2c[nH]c3ccccc23)NC(=O)[C@H](CC(=O)O)NC(=O)[C@H](Cc2ccc(OCC(=O)O)cc2)NC(=O)[C@H](Cc2ccncc2)NC(=O)CSC[C@@H](C(=O)N[C@@H](C)C(N)=O)NC(=O)[C@H]([C@@H](C)O)NC(=O)[C@H](C(C)C)NC(=O)[C@H](CC2CCCCC2)NC(=O)[C@H](CCN)NC(=O)[C@@H](CC2CCCCC2)NC(=O)[C@H](CCCN)NC1=O [Compound 1628] ({CH2CO}-[4Pal]Y(Carboxymethyl)DWV[Bip][aIle][Orn][dCha][Dab][Cha]VTCA-NH2; thioether N-14) | 24.9 |
| CC[C@@H](C)[C@@H]1NC(=O)[C@H](Cc2ccc(-c3ccccc3)cc2)NC(=O)[C@H](C(C)C)NC(=O)[C@H](Cc2c[nH]c3ccccc23)NC(=O)[C@H](CC(=O)O)NC(=O)[C@H](Cc2ccncc2)NC(=O)[C@H](Cc2ccc(OCC(=O)O)cc2)NC(=O)CSC[C@@H](C(=O)N[C@@H](C)C(N)=O)NC(=O)[C@H]([C@@H](C)O)NC(=O)[C@H](C(C)C)NC(=O)[C@H](CC2CCCCC2)NC(=O)[C@H](CCN)NC(=O)[C@@H](CC2CCCCC2)NC(=O)[C@H](CCCN)NC1=O [Compound 1629] ({CH2CO}-Y(Carboxymethyl)[4Pal]DWV[Bip][aIle][Orn][dCha][Dab][Cha]VTCA-NH2; thioether N-14) | 19.9 |
| CC[C@@H](C)[C@@H]1NC(=O)[C@H](Cc2ccc(-c3ccccc3)cc2)NC(=O)[C@H](C(C)C)NC(=O)[C@H](Cc2c[nH]c3ccccc23)NC(=O)[C@H](CC(=O)O)NC(=O)[C@H](Cc2ccncc2)NC(=O)[C@H](CN)NC(=O)CSC[C@@H](C(=O)N[C@@H](C)C(N)=O)NC(=O)[C@H]([C@@H](C)O)NC(=O)[C@H](C(C)C)NC(=O)[C@H](CC2CCCCC2)NC(=O)[C@H](CCN)NC(=O)[C@@H](CC2CCCCC2)NC(=O)[C@H](CCCN)NC1=O [Compound 1630] ({CH2CO}-[Dap][4Pal]DWV[Bip][aIle][Orn][dCha][Dab][Cha]VTCA-NH2; thioether N-14) | 48.3 |
| CC[C@@H](C)[C@@H]1NC(=O)[C@H](Cc2ccc(-c3ccccc3)cc2)NC(=O)[C@H](C(C)C)NC(=O)[C@H](Cc2c[nH]c3ccccc23)NC(=O)[C@H](CC(=O)O)NC(=O)[C@H](Cc2ccc(O)cc2)NC(=O)[C@H](CC(N)=O)NC(=O)CSC[C@@H](C(=O)N[C@@H](C)C(N)=O)NC(=O)[C@H]([C@@H](C)O)NC(=O)[C@H](C(C)C)NC(=O)[C@H](CC2CCCCC2)NC(=O)[C@H](CCN)NC(=O)[C@@H](CC2CCCCC2)NC(=O)[C@H](CCCN)NC1=O [Compound 1631] ({CH2CO}-NYDWV[Bip][aIle][Orn][dCha][Dab][Cha]VTCA-NH2; thioether N-14) | 44.1 |
| CC(C)[C@@H]1NC(=O)[C@H](Cc2c[nH]c3ccccc23)NC(=O)[C@H](CC(=O)O)NC(=O)[C@H](Cc2ccc(C(=O)O)cc2)NC(=O)[C@H](Cc2ccncc2)NC(=O)CSC[C@@H](C(=O)N[C@@H](C)C(N)=O)NC(=O)[C@H]([C@@H](C)O)NC(=O)[C@H](C(C)C)NC(=O)[C@H](CC2CCCCC2)NC(=O)[C@H](CCN)NC(=O)[C@@H](CC2CCCCC2)NC(=O)[C@H](CCCN)NC(=O)[C@H](C(C)C)NC(=O)[C@H](Cc2ccc(-c3ccccc3)cc2)NC1=O [Compound 1632] ({CH2CO}-[4Pal][Phe(4-COOH)]DWV[Bip]V[Orn][dCha][Dab][Cha]VTCA-NH2; thioether N-14) | 15.6 |
| CC(C)[C@@H]1NC(=O)[C@H](Cc2c[nH]c3ccccc23)NC(=O)[C@H](CC(=O)O)NC(=O)[C@H](Cc2ccc(OCC(=O)O)cc2)NC(=O)[C@H](Cc2ccc(OCC(=O)O)cc2)NC(=O)CSC[C@@H](C(=O)N[C@@H](C)C(N)=O)NC(=O)[C@H]([C@@H](C)O)NC(=O)[C@H](C(C)C)NC(=O)[C@H](CC2CCCCC2)NC(=O)[C@H](CCN)NC(=O)[C@@H](CC2CCCCC2)NC(=O)[C@H](CCCN)NC(=O)[C@H](C(C)C)NC(=O)[C@H](Cc2ccc(-c3ccccc3)cc2)NC1=O [Compound 1633] ({CH2CO}-Y(Carboxymethyl)Y(Carboxymethyl)DWV[Bip]V[Orn][dCha][Dab][Cha]VTCA-NH2; thioether N-14) | 20.2 |
| CC(C)[C@@H]1NC(=O)[C@H](Cc2c[nH]c3ccccc23)NC(=O)[C@H](CC(=O)O)NC(=O)[C@H](Cc2ccc(C(=O)O)cc2)NC(=O)[C@H](Cc2ccc(OCC(=O)O)cc2)NC(=O)CSC[C@@H](C(=O)N[C@@H](C)C(N)=O)NC(=O)[C@H]([C@@H](C)O)NC(=O)[C@H](C(C)C)NC(=O)[C@H](CC2CCCCC2)NC(=O)[C@H](CCN)NC(=O)[C@@H](CC2CCCCC2)NC(=O)[C@H](CCCN)NC(=O)[C@H](C(C)C)NC(=O)[C@H](Cc2ccc(-c3ccccc3)cc2)NC1=O [Compound 1634] ({CH2CO}-Y(Carboxymethyl)[Phe(4-COOH)]DWV[Bip]V[Orn][dCha][Dab][Cha]VTCA-NH2; thioether N-14) | 20.3 |
| CC(C)[C@@H]1NC(=O)[C@H](Cc2c[nH]c3ccccc23)NC(=O)[C@H](CC(=O)O)NC(=O)[C@H](Cc2ccc(OCC(=O)O)cc2)NC(=O)[C@H](CN)NC(=O)CSC[C@@H](C(=O)N[C@@H](C)C(N)=O)NC(=O)[C@H]([C@@H](C)O)NC(=O)[C@H](C(C)C)NC(=O)[C@H](CC2CCCCC2)NC(=O)[C@H](CCN)NC(=O)[C@@H](CC2CCCCC2)NC(=O)[C@H](CCCN)NC(=O)[C@H](C(C)C)NC(=O)[C@H](Cc2ccc(-c3ccccc3)cc2)NC1=O [Compound 1635] ({CH2CO}-[Dap]Y(Carboxymethyl)DWV[Bip]V[Orn][dCha][Dab][Cha]VTCA-NH2; thioether N-14) | 18.1 |
| CC(C)[C@@H]1NC(=O)[C@H](Cc2c[nH]c3ccccc23)NC(=O)[C@H](CC(=O)O)NC(=O)[C@H](Cc2ccc(OCC(=O)O)cc2)NC(=O)[C@H](Cc2ccncc2)NC(=O)CSC[C@@H](C(=O)N[C@@H](C)C(N)=O)NC(=O)[C@H]([C@@H](C)O)NC(=O)[C@H](C(C)C)NC(=O)[C@H](CC2CCCCC2)NC(=O)[C@H](CCN)NC(=O)[C@@H](CC2CCCCC2)NC(=O)[C@H](CCCN)NC(=O)[C@H](C(C)C)NC(=O)[C@H](Cc2ccc(-c3ccccc3)cc2)NC1=O [Compound 1636] ({CH2CO}-[4Pal]Y(Carboxymethyl)DWV[Bip]V[Orn][dCha][Dab][Cha]VTCA-NH2; thioether N-14) | 19.7 |
| CC(C)[C@@H]1NC(=O)[C@H](Cc2c[nH]c3ccccc23)NC(=O)[C@H](CC(=O)O)NC(=O)[C@H](Cc2ccncc2)NC(=O)[C@H](Cc2ccc(OCC(=O)O)cc2)NC(=O)CSC[C@@H](C(=O)N[C@@H](C)C(N)=O)NC(=O)[C@H]([C@@H](C)O)NC(=O)[C@H](C(C)C)NC(=O)[C@H](CC2CCCCC2)NC(=O)[C@H](CCN)NC(=O)[C@@H](CC2CCCCC2)NC(=O)[C@H](CCCN)NC(=O)[C@H](C(C)C)NC(=O)[C@H](Cc2ccc(-c3ccccc3)cc2)NC1=O [Compound 1637] ({CH2CO}-Y(Carboxymethyl)[4Pal]DWV[Bip]V[Orn][dCha][Dab][Cha]VTCA-NH2; thioether N-14) | 32.7 |
| CC(C)[C@@H]1NC(=O)[C@H](Cc2c[nH]c3ccccc23)NC(=O)[C@H](CC(=O)O)NC(=O)[C@H](Cc2ccncc2)NC(=O)[C@H](CN)NC(=O)CSC[C@@H](C(=O)N[C@@H](C)C(N)=O)NC(=O)[C@H]([C@@H](C)O)NC(=O)[C@H](C(C)C)NC(=O)[C@H](CC2CCCCC2)NC(=O)[C@H](CCN)NC(=O)[C@@H](CC2CCCCC2)NC(=O)[C@H](CCCN)NC(=O)[C@H](C(C)C)NC(=O)[C@H](Cc2ccc(-c3ccccc3)cc2)NC1=O [Compound 1638] ({CH2CO}-[Dap][4Pal]DWV[Bip]V[Orn][dCha][Dab][Cha]VTCA-NH2; thioether N-14) | 28.6 |
| CC(C)[C@@H]1NC(=O)[C@H](Cc2c[nH]c3ccccc23)NC(=O)[C@H](CC(=O)O)NC(=O)[C@H](Cc2ccc(O)cc2)NC(=O)[C@H](CC(N)=O)NC(=O)CSC[C@@H](C(=O)N[C@@H](C)C(N)=O)NC(=O)[C@H]([C@@H](C)O)NC(=O)[C@H](C(C)C)NC(=O)[C@H](CC2CCCCC2)NC(=O)[C@H](CCN)NC(=O)[C@@H](CC2CCCCC2)NC(=O)[C@H](CCCN)NC(=O)[C@H](C(C)C)NC(=O)[C@H](Cc2ccc(-c3ccccc3)cc2)NC1=O [Compound 1639] ({CH2CO}-NYDWV[Bip]V[Orn][dCha][Dab][Cha]VTCA-NH2; thioether N-14) | 35.8 |
